The results in this text go back to patent US20240173389A1, “Compositions and Methods For Reducing Immune Intolerance” (LAPIX THERAPEUTICS, INC., priority 2021, published 2024).

One test deals with TLR2. In words: TNF-α production by splenocytes in response to TLR2 ligand PGN. The following applies: 48 hours, OPLT 1.85 μg/ml, dexamethasone 100 μg/ml, rapamycin 625 μg/ml. Type of test: cell-based, C57BL/6 mice. The procedure: (§1) OPLT was dissolved in sterile PBS at 100 μM, and pH was adjusted to approximately 7.5. Splenocytes from naïve C57BL/6 mice were stained with CFSE, prepared, cultured, and dosed. Cells were seeded at 2×10^5 cells/well.
(§2) To evaluate the effects of OPLT on cytokine production by splenocytes in response to different TLR ligands, splenocytes were incubated with one of the following TLR ligands in triplicate: PGN, LPS, ODN CPG, dsRNA, or ssRNA, as per group assignment. Cells were then treated as follows: • Control: No treatment; • OPLT: Cells were dosed with 1.85 μg/ml; • Dexamethasone: Cells were dosed with 100 μg/ml; • Rapamycin: Cells were dosed with 625 μg/ml. Cells were incubated for 48 hours before collecting the supernatant for TNF-α analysis.
(§3) The supernatant was collected for TNF-α analysis by ELISA.

The subject of the next test is TLR9. In words: TNF-α production by splenocytes in response to TLR9 ligand ODN CpG. Type of test: cell-based, C57BL/6 mice. Conditions: 48 hours, OPLT 1.85 μg/ml, dexamethasone 100 μg/ml, rapamycin 625 μg/ml. The procedure: as §1, §2, §3
The next test concerns TLR3. In words: TNF-α production by splenocytes in response to TLR3 ligand poly(I:C). Type of test: cell-based, C57BL/6 mice. Conditions: 48 hours, OPLT 1.85 μg/ml, dexamethasone 100 μg/ml, rapamycin 625 μg/ml. As to the method:
as §1, §2, §3

A further test deals with TLR4. Kind of test: TNF-α production by splenocytes in response to TLR4 ligand LPS. Type of test: cell-based, C57BL/6 mice. Conditions: 48 hours, OPLT 1.85 μg/ml, dexamethasone 100 μg/ml, rapamycin 625 μg/ml. As to the method: as §1, §2, §3
Another test concerns TLR7. Kind of test: TNF-α production by splenocytes in response to TLR7 ligand ssPolyU. Type of test: cell-based, C57BL/6 mice. The following applies: 48 hours, OPLT 1.85 μg/ml, dexamethasone 100 μg/ml, rapamycin 625 μg/ml. As to the method: as §1, §2, §3
Test [1] relates to RAW264.7 mouse monocyte macrophage cells. In words: SAR screen in RAW 264.7 cells with FVIII antigen, TGF-β ELISA (Example 5). The following applies: free compounds dosed in mM range. The class given is cell-based. The source says: (§4) RAW264.7 mouse monocyte macrophage cells were exposed to an increasing concentration of selected compounds in the presence of human plasma-derived FVIII as a model antigen protein. TNF-α and TGF-β production were monitored.
All molecules were formulated in RPMI media in aseptic conditions. The pH was adjusted to approximately 7.5 before dosing cells. 1,2-dimyristoyl-sn-glycero-3-phosphocholine (DM PC):PS liposomes were made at 70:30 molar ratio to make “PS” liposomes. The remaining liposomes were made by hydrating a DMPC lipid layer in PBS buffer containing a test compound to give a final molar ratio of 70:30 of DMPC:test compound.
(§5) RAW 264.7 cells were prepared, cultured, and dosed. Cells were seeded at 4×10^5 cells/well. OPLS, OPLT and L-homocysteic acid (LHA) were dosed at 100, 85, 70, 60, 50, 30, 10, 3, 1, 0.3, 0.1, 0.03 and 0.01 mM, or at 100, 85, 70, 60, 50, 30, 10, 3 and 1 mM, as indicated. O-Benzyl-L-serine (OBLS), S-phenyl-L-cysteine (SPLC), S-benzyl-L-cysteine (SBLC) and OBLT were dosed at 100, 85, 70, 60, 50, 30, 10, 3, 1, 0.3, 0.1, 0.03, 0.01, 0.003 and 0.001 μM. Finally, 100 μl of 40 μg/ml of FVIII as a sample antigen was added to each cell. LPS and free protein were used as positive and baseline controls, respectively. TNF-α and TGF-β ELISA were conducted as per the manufacturer's instructions (R & D Systems).

The test system is the same in test [2]. Kind of test: SAR screen in RAW 264.7 cells with FVIII antigen, TNF-α ELISA (Example 5). The class given is cell-based. Conditions: for TNF-α induction: liposomal (DMPC 70:30) or free form dosed 0.001-100 μM.
Text: as §4
All molecules were formulated in RPMI media in aseptic conditions. The pH was adjusted to approximately 7.5 before dosing cells. 1,2-dimyristoyl-sn-glycero-3-phosphocholine (DM PC):PS liposomes were made at 70:30 molar ratio to make “PS” liposomes.
as §5
A general note: In an ELISA, binding on a coated surface is turned into a signal by an enzyme label.

Another test concerns FoxP3+/CD4+ T-cell. In words: Ex vivo flow cytometry of splenocytes for FoxP3+/CD4+ T-cells after FVIII treatment period (Example 1). Type of test: in vivo, mice. The procedure:
(§6) OPLT was dissolved in sterile PBS, and pH was adjusted to approximately 7.5. OPLS, a comparator compound, was dissolved in sterile PBS, and pH was adjusted to approximately 7.5. FVIII in PBS was used as a control. For treatment, FVIII was co-mixed with OPLT, OPLS or diluted in PBS before administration, as per group assignment for each animal. For re-challenge, FVIII was administered alone SC to all animals regardless of group assignment. […] For a head-to-head comparison, 5 mg/injection was selected for OPLT. FVIII was dosed at 1 μg/injection.
One week after the last dose in the treatment period, one animal from each group was selected at random for ex vivo analysis of the T-cell population. Spleens were collected and a single-cell suspension was prepared for cellular phenotyping by flow cytometry. Cells were stained and gated for CD4+ T-cells. FoxP3 expression level was evaluated for each animal.
A general note: Flow cytometry measures light scatter and fluorescence of single cells or particles in a stream.

The next test deals with B57BL6 Mice. In words: Anti-FVIII titer analysis in mice given FVIII co-mixed with compound SC QW 4 weeks, then FVIII re-challenge (Example 1). Type of test: in vivo. The following applies: end of treatment after one-week washout. The procedure:
as §6
The study was conducted in two parts: a treatment phase and a re-challenge phase. The objective of the treatment phase was to test the ability of OPLT to reduce the immunogenicity of FVIII as an antigen compared to animals administered FVIII or FVIII+OPLS. Animals were injected with FVIII, FVIII+OPLT, or FVIII+OPLS SC QW for 4 weeks. Blood samples were collected for anti-FVIII titer analysis after a one-week washout period from the last dose. The objective of the re-challenge phase of the study was to evaluate the duration of tolerance. Animals that have been successfully tolerized toward FVIII will not mount a robust immune response towards FVIII upon subsequent exposure to FVIII. After the washout period, animals were injected with (1 μg) FVIII SC QW for 2 weeks. Blood samples were collected one week after each FVIII injection for anti-FVIII titer analysis.

Another test has as its system Splenocytes. In words: Splenocyte culture with anti-CD3/anti-CD28 without antigen, Foxp3+/CD4+ by flow cytometry (Example 4). Type of test: cell-based. Conditions: 100 μM, three days, anti-CD3/anti-CD28, absence of any antigen. The procedure:
Splenocytes were cultured for three days in presence of anti-CD3/anti-CD28 in presence of 100 μM PS or 100 μM OPLT in absence of any antigen.

As for `C[C@@H]1C[C@H]2[C@@H]3CCC4=CC(=O)C=C[C@]4(C)[C@@]3(F)[C@@H](O)C[C@]2(C)[C@@]1(O)C(=O)CO` [Dexamethasone, dexamethasone], the TNF-α mean in the test with TLR2 (PGN 0 ng/ml) was 0 pg/mL; in the test on TLR2 (PGN 1 ng/ml, CTL 730) it was 0 pg/mL; in the test on TLR2 (PGN 10 ng/ml, CTL 725) it was 0 pg/mL; in the test on TLR2 (PGN 100 ng/ml, CTL 834), 0 pg/mL; with TLR9 (ODN CpG 0 ng/ml), 0 pg/mL; in the test with TLR9 (ODN CpG 1 ng/ml, CTL 0) it was 0 pg/mL. In addition, the TNF-α mean with TLR9 (ODN CpG 10 ng/ml, CTL 338) is 0 pg/mL; with TLR9 (ODN CpG 100 ng/ml, CTL 1220), 0 pg/mL; in the test with TLR3 (PolyI:C 0 ng/ml), 0 pg/mL; in the test with TLR3 (PolyI:C 1 ng/ml, CTL 0), 0 pg/mL; in the test with TLR3 (PolyI:C 10 ng/ml, CTL 109), 0 pg/mL; in the test on TLR3 (PolyI:C 100 ng/ml, CTL 162), 0 pg/mL. Moreover, the TNF-α mean with TLR4 (LPS 0 ng/ml) came out at 0 pg/mL; in the test on TLR4 (LPS 1 ng/ml, CTL 143), 0 pg/mL; in the test on TLR4 (LPS 10 ng/ml, CTL 840) it was 0 pg/mL; with TLR4 (LPS 100 ng/ml, CTL 1091), 0 pg/mL; in the test with TLR7 (Poly U 0 ng/ml), 0 pg/mL; in the test on TLR7 (Poly U 1 ng/ml, CTL 44), 0 pg/mL. For the same molecule, the TNF-α mean in the test with TLR7 (Poly U 10 ng/ml, CTL 51) was 0 pg/mL; with TLR7 (Poly U 100 ng/ml, CTL 229), 41 pg/mL.

With `N[C@@H](CCS(=O)(=O)O)C(=O)O` [LHA, L-homocysteic acid], the “TGF-β production versus OPLS” value in test [1] is on record as “more potent inducers of TGF-β”. The “TNF-α production (suppression) versus OPLS” value in test [2] (free compounds dosed in mM range, FVIII antigen) is “more potent inhibitors of TNF-α”.

With `N[C@@H](COCc1ccccc1)C(=O)O` [OBLS, O-Benzyl-L-serine], the TNF-α induction result in test [2] (FVIII antigen) is recorded as “failed to induce TNF-α”.

With `N[C@@H](Cc1ccc(OCc2ccccc2)cc1)C(=O)O` [OBLT, O-benzyl-L-tyrosine], the TNF-α induction entry in test [2] (FVIII antigen) is reported as “failed to induce TNF-α”.

`N[C@@H](COP(=O)(O)O)C(=O)O` [OPLS, O-phospho-L-serine, reference compound]: the “increase in FoxP3+/CD4+ compared to the FVIII alone group” value in the test with FoxP3+/CD4+ T-cell (5 mg/injection co-mixed with FVIII 1 μg SC QW 4 weeks, splenocytes of one animal per group one week after last dose) came to 66%. Further, the “FoxP3+/CD4+ T-cell (flow cytometry of splenocytes)” value in the test with FoxP3+/CD4+ T-cell (5 mg/injection co-mixed with FVIII SC QW 4 weeks, one animal per group, FVIII alone 2.94) was determined as 4.89. Besides, the “anti-FVIII titers versus FVIII control group” value with B57BL6 Mice is “statistically lower than the FVIII control group”. In addition, in the test on B57BL6 Mice (5 mg/injection + FVIII SC QW 4 weeks, FVIII control 8/8), the “animals that developed anti-FVIII antibodies” value was 5/8.

As for `CO[C@H]1C[C@@H]2CC[C@@H](C)[C@@](O)(O2)C(=O)C(=O)N2CCCC[C@H]2C(=O)O[C@H]([C@H](C)C[C@@H]2CC[C@@H](O)[C@H](OC)C2)CC(=O)[C@H](C)/C=C(\C)[C@@H](O)[C@@H](OC)C(=O)[C@H](C)C[C@H](C)/C=C/C=C/C=C/1C` [Rapamycin, rapamycin], the TNF-α mean was determined as 0 pg/mL with TLR2 (PGN 0 ng/ml); 0 pg/mL in the test with TLR2 (PGN 1 ng/ml, CTL 730); 0 pg/mL with TLR2 (PGN 10 ng/ml, CTL 725); 0 pg/mL with TLR2 (PGN 100 ng/ml, CTL 834); 0 pg/mL in the test on TLR9 (ODN CpG 0 ng/ml); 0 pg/mL in the test on TLR9 (ODN CpG 1 ng/ml, CTL 0). In addition, the TNF-α mean came to 0 pg/mL with TLR9 (ODN CpG 10 ng/ml, CTL 338); 0 pg/mL in the test on TLR9 (ODN CpG 100 ng/ml, CTL 1220); 0 pg/mL in the test with TLR3 (PolyI:C 0 ng/ml); 0 pg/mL in the test with TLR3 (PolyI:C 1 ng/ml, CTL 0); 0 pg/mL with TLR3 (PolyI:C 10 ng/ml, CTL 109); 0 pg/mL in the test on TLR3 (PolyI:C 100 ng/ml, CTL 162). Moreover, the TNF-α mean is 0 pg/mL in the test with TLR4 (LPS 0 ng/ml); 0 pg/mL in the test on TLR4 (LPS 1 ng/ml, CTL 143); 0 pg/mL with TLR4 (LPS 10 ng/ml, CTL 840); 0 pg/mL in the test with TLR4 (LPS 100 ng/ml, CTL 1091); 0 pg/mL with TLR7 (Poly U 0 ng/ml); 0 pg/mL in the test with TLR7 (Poly U 1 ng/ml, CTL 44). The TNF-α mean is 29 pg/mL in the test with TLR7 (Poly U 10 ng/ml, CTL 51) and 14 pg/mL with TLR7 (Poly U 100 ng/ml, CTL 229).

With `N[C@@H](CSCc1ccccc1)C(=O)O` [SBLC, S-benzyl-L-cysteine], in test [2] (FVIII antigen), the TNF-α induction result is listed as “failed to induce TNF-α”.

In the case of `N[C@@H](CSc1ccccc1)C(=O)O` [SPLC, S-phenyl-L-cysteine], the TNF-α induction result in [2] (FVIII antigen) is reported as “failed to induce TNF-α”.

Regarding “phosphatidyl serine [PS, reference compound]”, the “fold difference between the ability of OPLS and PS to induce TNF-α” value in [2] (OPLS versus PS) is listed as 1,000 fold. Also, the “increase in Foxp3+/CD4+ compared to control” value with Splenocytes was 76%.
